From PMC8207694, “Nucleoside transporter-guided cytarabine-conjugated liposomes for intracellular methotrexate delivery and cooperative choriocarcinoma therapy” (Journal of Nanobiotechnology, 2021)

Tests used:
JEG-3 cells [1] = assay: Cell structure damage (bio-TEM); format: cell-based, human; details: 1 μg/mL MTX-equivalent, 24 h
Procedure: Bio-TEM was applied for observing the cell structure and mitochondrial damage effect induced by MTX formulations. Briefly, JEG-3 cells were seeded in a 6 cm dish. After culturing for 24 h, the cells were treated with free MTX, MTX + Cy-lipid, Lipo@MTX, or Cy-Lipo@MTX at an equivalent MTX concentration (1 μg/mL) for another 24 h. Then, cells were digested, centrifuged, and fixed with 2.5% glutaraldehyde solution at 4 °C for more than 4 h. Finally, the bio-TEM observation was performed after sample preparation.

[2] = Pharmacokinetic study after intravenous administration; format: in vivo, SD rats; details: rats
Procedure: The advanced Automatic Blood Collection System (Instech, USA) was applied to study the pharmacokinetic feature of various MTX formulations. Female SD rats (200–220 g) were acclimatized at 25 ± 2 °C for 1 week before the experiments. Animals were randomized into 3 groups and each group contained 3 rats. Group I, II, and III were intravenously given free MTX, Lipo@MTX, and Cy-Lipo@MTX respectively at a dose of 10 mg MTX-equivalent/kg body weight. Blood (200 μL) was obtained at 0.25, 0.5, 1, 2, 4, 8, 12, 24, 48, and 72 h through jugular vein after administration. 150 μL of plasma was combined with 450 μL acetonitrile to precipitate proteins, and drug content of samples was analyzed by HPLC. The pharmacokinetic software (DAS 2.0) was used to assess key pharmacokinetic parameters including mean residence time (MRT), area under the curve (AUC), peak plasma concentration (Cmax), half-life (t1/2), and time to maximal plasma concentration (Tmax).

[3] = design: method as in PMID 22510625; details: liver damage, abdominal pain, gastrointestinal reactions, mucosal damage, bone marrow suppression; cited from earlier work
JEG-3 tumor models = assay: Survival of large tumor-bearing mice (Kaplan-Meier); format: in vivo; details: mice bearing larger tumors 300-500 mm^3; saline 26 days
Procedure: When tumors were 50–100 mm^3 in size, nude mice were intravenously administrated with saline or MTX formulations (free MTX, MTX + Cy-lipid, Lipo@MTX, or Cy-Lipo@MTX, 5 mg MTX-equivalent/kg body weight, each group contained 6 mice) on day 6, 9, 12, 14, 18, and 21. On the 24th day, the mice were sacrificed, and the tumors, as well as the main organs, were excised, weighed, washed three times using saline, and subjected to fixation with 10% neutral buffered formalin. The tumor tissues were collected for H&E, TUNEL, and Ki67 staining. […] The survival of large tumor-bearing mice (300–500 mm^3 in size) was analyzed via Kaplan–Meier analysis (each group contained 5 mice).

JEG-3 cells [4] = assay: Cell cycle analysis (PI, flow cytometry); format: cell-based, human; details: 1 μg/mL MTX-equivalent, 24 h; control 5.44 ± 0.97%
Procedure: For cell cycle analysis, JEG-3 cells (10^5/well) were added to 6-well plates for 24 h and were then treated with culture medium or MTX formulation-contained culture medium at an equivalent MTX concentration (1 μg/mL) for another 24 h. Then, JEG-3 cells were collected (1000 rpm, 5 min) and fixed using 70% ethanol for 8 h at 4℃. After resuspended in PI/RNase Staining buffer for 30 min, the cell cycle was determined with flow cytometry.

Pricell-0051 cells = assay: In vitro cytotoxicity, MTT assay; format: cell-based; details: Homo sapiens; Pricell-0051, 48 h, MTX-equivalent
Procedure: (§1) The cytotoxicities of MTX formulations were assessed via MTT assay. The groups were as follows: MTX solution (free MTX), MTX plus DSPE-PEG2k-Cy (abbreviated as MTX + Cy-lipid, the molar ratio of Cy-lipid to MTX was about 1:5.0), Lipo@MTX, and Cy-Lipo@MTX. JEG-3 cells or Pricell-0051 cells were added to 96-well plates (1 × 10^4 cells/well). After 24 h, cells were rinsed using PBS and treated with MTX formulations (0.001–30 μg MTX-equivalent/mL) for 48 h at 37 °C [40]. Viability was assessed by adding 20 μL of MTT (5 mg/mL) per well for 4 h. Next, the medium was removed and formazan crystals were dissolved via the addition of 150 μL of DMSO. A microplate reader (Varioskan Flash 3001, Thermo Fisher Scientific, USA) was then used to assess absorbance at 490 nm.

JEG-3 cells [5] = assay: In vitro cytotoxicity, MTT assay; format: cell-based; details: Homo sapiens; JEG-3, 48 h, MTX-equivalent
Procedure: as §1

[6] = design: method as in PMID 28415433; details: cited from earlier work
[7] = Safety: body weight and H&E of primary organs during antitumor study; format: in vivo, mice
Procedure: Healthy mice were administered the Lipo@MTX or Cy-Lipo@MTX dispersion via tail vein (10 mg MTX-equivalent/kg body weight every three days) for five times (each group contained 3 mice). Saline was injected as a control. After the administration, blood biochemical indices were measured. During the in vivo antitumor studies, the body weight and activity status of mice in each group were monitored for evaluating the side effects of the MTX formulations. After in vivo antitumor studies, the primary organs of each group were harvested for H&E staining.

JEG-3 cells [8] = assay: Apoptosis (FITC Annexin V, flow cytometry); format: cell-based, human; details: 1 μg/mL MTX-equivalent, 24 h; control 10.39 ± 2.78%
Procedure: Apoptosis of JEG-3 cells was detected using the FITC Annexin V Apoptosis Detection Kit I. The cells (10^5/well) were seeded in 6-well plates. Following culture for 24 h, cells were treated with culture medium or MTX formulation-contained culture medium at an equivalent MTX concentration (1 μg/mL) for another 24 h. All other protocols were conducted based on the provided directions. The cells were analyzed by flow cytometry.

[9] = Biodistribution of MTX in tumor-bearing mice; format: in vivo; details: 2 h post-treatment
Procedure: JEG-3 tumor-bearing mice were also used for organ distribution studies. Animal groups and dosage were consistent with pharmacokinetic studies. For bio-distribution studies of MTX formulations, three animals per group were sacrificed at 2, 8, and 24 h following treatment, and tumors, lungs, kidneys, hearts, livers, and spleens were isolated, weighed, and frozen. These tissues were then homogenized, spun down for 1 min, rested for 45 min, and combined with 100 µl of 10% trichloroacetic acid solution followed by vortexing for 1 min, adding 5 mL of acetonitrile, and incubating for 10 min. Samples were then spun down for 10 min at 6,000 rpm, and supernatants were isolated, combined with mobile phase, and passed through 0.22 µm membrane filters. Finally, HPLC was applied to estimate the drug content of samples.

[10] = female, Sprague-Dawley (SD), rat, plasma, iv, 10 mg/kg, 10 mg MTX-equivalent/kg

For `CN(Cc1cnc2nc(N)nc(N)c2n1)c1ccc(C(=O)N[C@@H](CCC(=O)O)C(=O)O)cc1` [free MTX, Methotrexate], the “cell structure and mitochondria (bio-TEM)” value (JEG-3 cells [1]) was “cell structure was intact and the cell boundary was clearly visible”, the AUC(0-t) [2, 10] was 62400 ± 21500 ng·h/mL and the Cmax [2, 10] was 13500 ± 1960 ng/mL. The clearance [2, 10] was 1.43 mL/min, the MRT last ([2]; female, Sprague-Dawley (SD), rat, plasma, iv, 10 mg/kg, i.v., 10 mg MTX-equivalent/kg, read-out: MRT(0-t)) was 6.27 ± 2.52 h and the half-life ([2]; female, Sprague-Dawley (SD), rat, plasma, iv, 10 mg/kg, i.v., 10 mg MTX-equivalent/kg, read-out: t1/2β (converted)) was 5.23 ± 2.72 h. The concentration at 0.25 h ([2]; female, Sprague-Dawley (SD), rat, plasma, iv, after 0.25 h, i.v., 10 mg/kg, read-out: plasma MTX concentration) was 13500 ± 1960 ng/mL, the concentration at 4 h ([2]; female, Sprague-Dawley (SD), rat, plasma, iv, after 4 h, i.v., 10 mg/kg, read-out: plasma MTX concentration) was 4590 ± 1610 ng/mL and the concentration at 12 h ([2]; female, Sprague-Dawley (SD), rat, plasma, iv, after 12 h, i.v., 10 mg/kg, read-out: plasma MTX concentration) was 1140 ± 490 ng/mL. The concentration at 24 h ([2]; female, Sprague-Dawley (SD), rat, plasma, iv, after 24 h, i.v., 10 mg/kg, read-out: plasma MTX concentration) was 430 ± 360 ng/mL, the Vss ([2]; i.v., 10 mg MTX-equivalent/kg) was 0.58 ± 0.10 mg/kg/(mg/mL) and the “incidence rate of adverse reactions during systemic administration” value [3] was “more than 30%”. For the same compound, the median survival time (JEG-3 tumor models) was 28 days, the “JEG-3 cells arrested at the S phase” value (JEG-3 cells [4]) was 11.59 ± 1.53% and the IC50 (Pricell-0051 cells) was 32.2 µg/mL. The IC50 (JEG-3 cells [5]) was 19.6 µg/mL, the “solubility in acidic versus neutral solutions” value [6] was “solubility of MTX in acidic solutions is greater than that in neutral solutions” and the “H&E-stained slices of major organs” value ([7]; end of treatment) was “many edematous glomeruli”. The “body weight change during treatment” value ([7]; tumor-bearing mice, 5 mg MTX-equivalent/kg) was “severe weight loss”, the “apoptotic percentage of JEG-3 cells” value (JEG-3 cells [8]) was 18.03 ± 2.25% and the “main organs of MTX distribution” value [9] was “found in the kidneys and liver”.
